Experimental data published in patent US20130157954A1, “METHODS FOR TREATMENT OR PROPHYLAXIS OF KIDNEY OR LIVER DYSFUNCTION” (NPS PHARMACEUTICALS, INC., priority 2010, published 2013).

Assay: Example 1: kidney biomarkers (urea nitrogen, creatinine, GFR) in short bowel syndrome patients, every four weeks for 24 weeks; also sorted by >5% change from baseline
Format: in vivo, Human
Conditions: 0.05 mg/kg/day
Protocol: Human patients with short bowel syndrome were divided into three groups: a control group (16 total individuals) to receive placebo, an experimental group (35 total individuals) to receive teduglutide at 0.05 mg/kg/day throughout the study, and an experimental group (32 total individuals) to receive teduglutide at 0.1 mg/kg/day throughout the study. Patients were treated by subcutaneous injection of placebo or the appropriate dose of teduglutide. As individuals with short bowel syndrome are likely to experience associated liver and kidney disease, known biomarkers of liver and kidney function were monitored every four weeks, for 24 weeks. The liver biomarkers tested included total bilirubin, ALT and AST and ALP. The kidney biomarkers tested included urea nitrogen, creatinine and GFR. Before administration of placebo or teduglutide, diagnostic biomarker levels were tested to establish a baseline for each individual.
To visualize the effect of GLP-2 on the levels of the diagnostic biomarkers, the average change from baseline was calculated for the placebo and teduglutide treated groups for each visit after a baseline was established. The average change from baseline of each group is depicted in FIGS. 1-7. The numerical figures for each diagnostic biomarker at each time point are depicted in Table 1.
The raw data for this sorting is reproduced in Table 2 below.

CC[C@H](C)[C@H](NC(=O)[C@H](Cc1ccccc1)NC(=O)[C@H](CC(=O)O)NC(=O)[C@H](CCCNC(=N)N)NC(=O)[C@H](C)NC(=O)[C@H](C)NC(=O)[C@H](CC(C)C)NC(=O)[C@H](CC(N)=O)NC(=O)[C@H](CC(=O)O)NC(=O)[C@H](CC(C)C)NC(=O)[C@@H](NC(=O)[C@@H](NC(=O)[C@H](CC(N)=O)NC(=O)[C@H](CCSC)NC(=O)[C@H](CCC(=O)O)NC(=O)[C@H](CC(=O)O)NC(=O)[C@H](CO)NC(=O)[C@H](Cc1ccccc1)NC(=O)[C@H](CO)NC(=O)CNC(=O)[C@H](CC(=O)O)NC(=O)CNC(=O)[C@@H](N)Cc1c[nH]cn1)[C@@H](C)O)[C@@H](C)CC)C(=O)N[C@@H](CC(N)=O)C(=O)N[C@@H](Cc1c[nH]c2ccccc12)C(=O)N[C@@H](CC(C)C)C(=O)N[C@H](C(=O)N[C@@H](CCC(N)=O)C(=O)N[C@H](C(=O)N[C@@H](CCCCN)C(=O)N[C@H](C(=O)N[C@H](C(=O)N[C@@H](CC(=O)O)C(=O)O)[C@@H](C)O)[C@@H](C)CC)[C@@H](C)O)[C@@H](C)CC [teduglutide]
CREATININE (RATE BLANKED) change from baseline >5%, number of patients (week 12): 16
CREATININE (RATE BLANKED) change from baseline >5%, percent of patients (week 12): (45.7%)
CREATININE (RATE BLANKED) change from baseline −5% <= and <=5%, number of patients (week 12): 4
CREATININE (RATE BLANKED) change from baseline −5% <= and <=5%, percent of patients (week 12): (11.4%)
GFR change from baseline <−5%, number of patients (week 12): 15
GFR change from baseline <−5%, percent of patients (week 12): (42.9%)
GFR change from baseline >5%, number of patients (week 12): 6
GFR change from baseline >5%, percent of patients (week 12): (17.1%)
GFR change from baseline −5% <= and <=5%, number of patients (week 12): 5
GFR change from baseline −5% <= and <=5%, percent of patients (week 12): (14.3%)
UREA NITROGEN change from baseline <−5%, number of patients (week 12): 17
UREA NITROGEN change from baseline <−5%, percent of patients (week 12): (48.6%)
UREA NITROGEN change from baseline >5%, number of patients (week 12): 6
UREA NITROGEN change from baseline >5%, percent of patients (week 12): (17.1%)
UREA NITROGEN change from baseline −5% <= and <=5%, number of patients (week 12): 4
UREA NITROGEN change from baseline −5% <= and <=5%, percent of patients (week 12): (11.4%)
CREATININE (RATE BLANKED) change from baseline <−5%, number of patients (week 16): 8
CREATININE (RATE BLANKED) change from baseline <−5%, percent of patients (week 16): (22.9%)
CREATININE (RATE BLANKED) change from baseline >5%, number of patients (week 16): 8
CREATININE (RATE BLANKED) change from baseline >5%, percent of patients (week 16): (22.9%)
CREATININE (RATE BLANKED) change from baseline −5% <= and <=5%, number of patients (week 16): 12
CREATININE (RATE BLANKED) change from baseline −5% <= and <=5%, percent of patients (week 16): (34.3%)
GFR change from baseline <−5%, number of patients (week 16): 7
GFR change from baseline <−5%, percent of patients (week 16): (20.0%)
GFR change from baseline >5%, number of patients (week 16): 11
GFR change from baseline >5%, percent of patients (week 16): (31.4%)
GFR change from baseline −5% <= and <=5%, number of patients (week 16): 10
GFR change from baseline −5% <= and <=5%, percent of patients (week 16): (28.6%)
UREA NITROGEN change from baseline <−5%, number of patients (week 16): 12
UREA NITROGEN change from baseline <−5%, percent of patients (week 16): (34.3%)
UREA NITROGEN change from baseline >5%, number of patients (week 16): 10
UREA NITROGEN change from baseline >5%, percent of patients (week 16): (28.6%)
UREA NITROGEN change from baseline −5% <= and <=5%, number of patients (week 16): 6
UREA NITROGEN change from baseline −5% <= and <=5%, percent of patients (week 16): (17.1%)
CREATININE (RATE BLANKED) change from baseline <−5%, number of patients (week 20): 9
CREATININE (RATE BLANKED) change from baseline <−5%, percent of patients (week 20): (25.7%)
CREATININE (RATE BLANKED) change from baseline >5%, number of patients (week 20): 10
CREATININE (RATE BLANKED) change from baseline >5%, percent of patients (week 20): (28.6%)
CREATININE (RATE BLANKED) change from baseline −5% <= and <=5%, number of patients (week 20): 8
CREATININE (RATE BLANKED) change from baseline −5% <= and <=5%, percent of patients (week 20): (22.9%)
GFR change from baseline <−5%, number of patients (week 20): 10
GFR change from baseline <−5%, percent of patients (week 20): (28.6%)
GFR change from baseline >5%, number of patients (week 20): 10
GFR change from baseline >5%, percent of patients (week 20): (28.6%)
GFR change from baseline −5% <= and <=5%, number of patients (week 20): 7
GFR change from baseline −5% <= and <=5%, percent of patients (week 20): (20.0%)
UREA NITROGEN change from baseline <−5%, number of patients (week 20): 13
UREA NITROGEN change from baseline <−5%, percent of patients (week 20): (37.1%)
UREA NITROGEN change from baseline >5%, number of patients (week 20): 7
UREA NITROGEN change from baseline >5%, percent of patients (week 20): (20.0%)
UREA NITROGEN change from baseline −5% <= and <=5%, number of patients (week 20): 7
UREA NITROGEN change from baseline −5% <= and <=5%, percent of patients (week 20): (20.0%)
CREATININE (RATE BLANKED) change from baseline <−5%, number of patients (week 24): 8
CREATININE (RATE BLANKED) change from baseline <−5%, percent of patients (week 24): (22.9%)
CREATININE (RATE BLANKED) change from baseline >5%, number of patients (week 24): 9
CREATININE (RATE BLANKED) change from baseline >5%, percent of patients (week 24): (25.7%)
CREATININE (RATE BLANKED) change from baseline −5% <= and <=5%, number of patients (week 24): 9
CREATININE (RATE BLANKED) change from baseline −5% <= and <=5%, percent of patients (week 24): (25.7%)
GFR change from baseline <−5%, number of patients (week 24): 8
GFR change from baseline <−5%, percent of patients (week 24): (22.9%)
GFR change from baseline >5%, number of patients (week 24): 10
GFR change from baseline >5%, percent of patients (week 24): (28.6%)
GFR change from baseline −5% <= and <=5%, number of patients (week 24): 8
GFR change from baseline −5% <= and <=5%, percent of patients (week 24): (22.9%)
UREA NITROGEN change from baseline <−5%, number of patients (week 24): 17
UREA NITROGEN change from baseline <−5%, percent of patients (week 24): (48.6%)
UREA NITROGEN change from baseline >5%, number of patients (week 24): 7
UREA NITROGEN change from baseline >5%, percent of patients (week 24): (20.0%)
UREA NITROGEN change from baseline −5% <= and <=5%, number of patients (week 24): 2
UREA NITROGEN change from baseline −5% <= and <=5%, percent of patients (week 24): (5.7%)
